Reference: US11767330B2, “Citrate salt, pharmaceutical compositions, and methods of making and using the same” (Foghorn Therapeutics Inc., priority 2021, dated 2023)
Entries after “also recorded” stand apart in the source; their conditions may differ.

How the values were obtained:
[1] = test system: synovial sarcoma cell lines (SYO1, Yamato, HS-SY-II, and ASKA); test: Growth of synovial sarcoma cell lines, IncuCyte confluency / crystal violet / colony imaging (Example 2); format: cell-based; conditions: FIGS. 4, 5, 6
Protocol: (§1) Cells were treated with DMSO or the BRD9 degrader, Compound 1, at indicated concentrations, and proliferation was monitored from day 7 to day 14 by measuring confluency overtime using an IncuCyte live cell analysis system (FIG. 4). Growth medium and compounds were refreshed every 3-4 days.
(§2) Cells were seeded into 12-well plates and treated with DMSO, 1 μM BRD9 inhibitor, Compound 2 (also known as BI-7273, see Martin et al, J Med Chem. 59(10):4462-4475 (2016); see structure of compound 2 below), or 1 μM BRD9 degrader, Compound 1.
(§3) The number of cells was optimized for each cell line. Growth medium and compounds were refreshed every 3-5 days. SYO1, Yamato, A549, 293T and HS-SY-II cells were fixed and stained at day 11. ASKA cells were fixed and stained at day 23. Staining was done by incubation with crystal violet solution (0.5 g Crystal Violet, 27 ml 37% Formaldehyde, 100 mL 10×PBS, 10 mL Methanol, 863 dH20 to 1 L) for 30 min followed by 3× washes with water and drying the plates for at least 24 h at room temperature. Subsequently plates were scanned on an Odyssey CLx Imaging system (FIG. 5).
(§4) Cells were seeded into 96-well ultra-low cluster plate (Costar, #7007) in 200 μL complete media and treated at day 2 with DMSO, Staurosporin, or BRD9 degrader, Compound 1, at indicated doses (FIG. 2C). Media and compounds were changed every 5 d and cell colonies were imaged at day 14.

[2] = test system: non-synovial control cancer cell lines (293T, A549, G401); test: Growth of non-synovial control cancer cell lines (Example 2); format: cell-based
Protocol: as §1, §2, §3, §4

[3] = test system: non-synovial control cancer cell lines (RD, HCT116, and Calu6); test: Growth of non-synovial control cancer cell lines, crystal violet day 14 (Example 3); format: cell-based; conditions: daily treatment
Protocol: (§5) Procedure: Cells were seeded into 6-well or 12-well plates and were treated daily with a BRD9 degrader (Compound 1), a bromo-domain BRD9 binder (Compound 2), E3 ligase binder (lenalidomide), DMSO, or staurosporin (positive control for cell killing), at indicated concentrations. The number of cells was optimized for each cell line. Growth media was refreshed every 5 days. By day 14, medium was removed, cells were washed with PBS, and stained using 500 μL of 0.005% (w/v) crystal violet solution in 25% (v/v) methanol for at least 1 hour at room temperature. Subsequently plates were scanned on an Odyssey CLx Imaging system.

[4] = test system: synovial sarcoma cell lines (SYO1, HS-SY-II, and ASKA); test: Growth of synovial sarcoma cell lines, crystal violet day 14 (Example 3); format: cell-based; conditions: daily treatment
Protocol: as §5

BRD9 [5] = molecular target: T1, BRD9 (Homo sapiens, UniProt Q9H8M2); test: BRD9 degradation western blot in ASKA cells (Example 13); format: cell-based; parameters: degradation endogenous BRD9 protein in two synovial sarcoma cell lines; endogenous in cells; host or cells: ASKA synovial sarcoma cells; conditions: for DC50: read-out: Fitted DC50
T1 sequence (Q9H8M2 1-597): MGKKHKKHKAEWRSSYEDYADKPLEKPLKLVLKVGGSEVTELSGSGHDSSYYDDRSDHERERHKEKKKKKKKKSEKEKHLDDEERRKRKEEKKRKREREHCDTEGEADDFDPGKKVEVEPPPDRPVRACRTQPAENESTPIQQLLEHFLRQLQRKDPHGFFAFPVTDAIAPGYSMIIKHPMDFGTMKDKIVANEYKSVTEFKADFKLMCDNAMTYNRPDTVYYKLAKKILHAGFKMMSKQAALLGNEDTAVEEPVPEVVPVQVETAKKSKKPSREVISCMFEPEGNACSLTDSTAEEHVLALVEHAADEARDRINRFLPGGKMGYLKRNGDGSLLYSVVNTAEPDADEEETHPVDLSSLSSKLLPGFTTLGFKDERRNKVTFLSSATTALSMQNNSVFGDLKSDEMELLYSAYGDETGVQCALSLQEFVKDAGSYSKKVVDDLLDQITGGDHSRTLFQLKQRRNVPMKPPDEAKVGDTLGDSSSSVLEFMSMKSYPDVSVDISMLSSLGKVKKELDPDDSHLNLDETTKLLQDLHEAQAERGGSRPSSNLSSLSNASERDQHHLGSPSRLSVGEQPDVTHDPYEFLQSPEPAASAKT
Protocol: […] Cells were then harvested, washed with cold PBS, and frozen in cell pellets at −80° C. Lysates were prepared by resuspending thawed pellets in 1×RIPA Lysis and Extraction buffer (Thermo Fisher, Cat #89900) with 1× Halt™ Protease and Phosphatase Inhibitor Cocktail, EDTA-free (Thermo Fisher, Cat #78441) and 1:1000 dilution Pierce™ Universal Nuclease for Cell Lysis 25 ku (Thermo Fisher, Cat #88700). Lysates were incubated on ice for 10 minutes and then centrifuged in 4° C. at maximum speed (15,000 rpm) for 10 minutes. Samples were then analyzed for total protein using BCA protein quantification assay and diluted to 1 μg/μL with lysis buffer and 1× NuPAGE™ LDS Sample Buffer (4×) (Thermo Fisher, Cat #NP0007) and 1×DTT from 30× stock (Cell Signaling Technologies, Cat #14265S). Samples with 20-25 ug of total protein were loaded into 4-12% Bis-Tris Mini-Gel with 1×MES Running buffer and run at 150V for 45 minutes. Gels were transferred using Trans-Blot® Turbo™ Transfer System (semi-dry) at 25V for 10 minutes (High MW setting) on nitrocellulose blots. Blots were blocked in 5% milk in TBST for 1 hour and probed with BRD9 antibody (Bethyl Labs, Cat #A303-781A, 1:750 for SYO1, and Cell Signaling Technologies, Cat #71232S for ASKA) and beta-Actin antibody (Cell Signaling Technologies, Cat #3700, 1:2,000) overnight at 4° C. The next day, blots were washed in TBST 3× and probed with 1:5,000 IRDye® 680LT Goat anti-Rabbit IgG Secondary Antibody (LiCOR, Cat #926-68021) and 1:10,000 IRDye® 800CW Goat anti-Mouse IgG Secondary Antibody (LiCOR, Cat #926-32210) in LiCOR Odyssey® Blocking Buffer (TBS) for 1 hour at room temperature. Blots were washed in TBST 3× and scanned at […] wavelength using LiCOR Odyssey® CLx Imaging System. Western blot signal was quantified using same analyses program included in the same machine. BRD9 signal was quantified by normalizing to beta-actin signal and all samples were normalized to DMSO, set as 100% signal.

BRD9 [6] = molecular target: T1, BRD9; test: BRD9 degradation western blot in SYO-1 cells (Example 13); format: cell-based; parameters: degradation endogenous BRD9 protein in two synovial sarcoma cell lines; endogenous in cells; host or cells: SYO1 (SYO-1) synovial sarcoma cells; conditions: for DC50: read-out: Fitted DC50; for degradation of endogenous BRD9 protein at early time point: two synovial sarcoma cell lines (SYO-1 and ASKA)
Protocol: Synovial sarcoma cells were plated in 6-well plate at […] cells/well and treated with serial concentrations of BRD9 degrader (10 nM top concentration, diluted 1:3) the next day for two time points at 37° C. Cells were then harvested, washed with cold PBS, and frozen in cell pellets at −80° C. Lysates were prepared by resuspending thawed pellets in 1×RIPA Lysis and Extraction buffer (Thermo Fisher, Cat #89900) with 1× Halt™ Protease and Phosphatase Inhibitor Cocktail, EDTA-free (Thermo Fisher, Cat #78441) and 1:1000 dilution Pierce™ Universal Nuclease for Cell Lysis 25 ku (Thermo Fisher, Cat #88700). Lysates were incubated on ice for 10 minutes and then centrifuged in 4° C. at maximum speed (15,000 rpm) for 10 minutes. Samples were then analyzed for total protein using BCA protein quantification assay and diluted to 1 μg/μL with lysis buffer and 1× NuPAGE™ LDS Sample Buffer (4×) (Thermo Fisher, Cat #NP0007) and 1×DTT from 30× stock (Cell Signaling Technologies, Cat #14265S). Samples with 20-25 ug of total protein were loaded into 4-12% Bis-Tris Mini-Gel with 1×MES Running buffer and run at 150V for 45 minutes. Gels were transferred using Trans-Blot® Turbo™ Transfer System (semi-dry) at 25V for 10 minutes (High MW setting) on nitrocellulose blots. Blots were blocked in 5% milk in TBST for 1 hour and probed with BRD9 antibody (Bethyl Labs, Cat #A303-781A, 1:750 for SYO1, and Cell Signaling Technologies, Cat #71232S for ASKA) and beta-Actin antibody (Cell Signaling Technologies, Cat #3700, 1:2,000) overnight at 4° C. The next day, blots were washed in TBST 3× and probed with 1:5,000 IRDye® 680LT Goat anti-Rabbit IgG Secondary Antibody (LiCOR, Cat #926-68021) and 1:10,000 IRDye® 800CW Goat anti-Mouse IgG Secondary Antibody (LiCOR, Cat #926-32210) in LiCOR Odyssey® Blocking Buffer (TBS) for 1 hour at room temperature. Blots were washed in TBST 3× and scanned at […] wavelength using LiCOR Odyssey® CLx Imaging System. Western blot signal was quantified using same analyses program included in the same machine. BRD9 signal was quantified by normalizing to beta-actin signal and all samples were normalized to DMSO, set as 100% signal.

[7] = Interconversion between Enantiomer 1 and Enantiomer 2 in cell medium (chiral LC/MS-MS); format: physicochemical; conditions: 0.2 μM dosed enantiomer, cell medium 37° C.
Protocol: For the assessment of interconversion between Enantiomer 1 and Enantiomer 2 in cell medium, the following test was performed. […] At designated time point, aliquot (50 μL) was taken and processed by the addition of 150 μL of acetonitrile containing 0.1% formic acid and internal standard for LC/MS-MS analysis. Peak areas of both Enantiomer 1 and Enantiomer 2 were determined for each sample using a chiral specific analytical method.

BRD9 [8] = molecular target: T1, BRD9; test: Pharmacodynamic BRD9 level in SYO-1 xenograft, western blot (Example 14); format: in vivo, mice; parameters: Tumors were lysed with 1×RIPA lysis buffer; from tissue; host or cells: SYO-1 xenograft tumours in BALB/c Nude mice; conditions: SYO-1 Xenograft model; for pharmacodynamic activity, BRD9 protein level by western blot: BALB/c Nude mice, single dose i.v. (Table 6)

Row | Compound | growth of synovial sarcoma cell lines [1] | growth of non-synovial control cancer cell lines [2] | growth of non-synovial control cancer cell lines [3] | growth of synovial sarcoma cell lines [4] | DC50 (BRD9 [5]; 0.5 h) [nM] | difference in DC50 between Enantiomer 1 and Enantiomer 2 (BRD9 [5]; 2 h) | DC50 (BRD9 [5]; 2 h) [nM] | difference in DC50 between Enantiomer 1 and Enantiomer 2 (BRD9 [6]; SYO1, 6 h) | BRD9 degradation compared to racemic compound D1 (BRD9 [6]; SYO-1, 1 or 6 hours (FIGS. 16 and 17)) | DC50 (BRD9 [6]; SYO-1, 1 h) [nM] | DC50 (BRD9 [6]; SYO-1, 6 h) [nM] | active enantiomer in degrading BRD9 in cells (BRD9 [6]; overall conclusion of Example 13) | degradation of endogenous BRD9 protein at early time point (BRD9 [6]) | % Enantiomer 2 ([7]; 0 h) [%] | % Enantiomer 2 ([7]; 0.5 h) [%] | % Enantiomer 2 ([7]; 2 h) [%] | % Enantiomer 2 ([7]; 6 h) [%] | pharmacodynamic activity, BRD9 protein level by western blot (BRD9 [8]) | duration of BRD9 degradation after a single dose (BRD9 [8]; single dose i.v.) | BRD9 degradation activity (BRD9 [5]; 30 minutes, up to 10 μM)
1 | COc1cc(-c2cn(C)c(=O)c3cnccc23)cc(OC)c1CN(C)C [Compound 2] | inhibition of the growth of the cells | does not result in inhibition of the growth | did not result in inhibition of the growth | inhibition of the growth of the cells | – | – | – | – | – | – | – | – | – | – | – | – | – | – | – | –
2 | COc1cc(-c2cn(C)c(=O)c3cnc(N4CCC4)cc23)cc(OC)c1CN1CCC(CN2CCC3(CC2)CN(c2ccc4c(c2)C(=O)N([C@@H]2CCC(=O)NC2=O)C4)C3)CC1 (single isomer, unassigned; enantiomer 2) [Enantiomer 2] | – | – | – | – | 0.34 | about 32 fold | 0.012 | ca. 3 fold | slightly better than its racemic parent compound D1 in degrading BRD9 but overall comparable | 0.092 | 0.023 | active enantiomer | much more potent | 99 | 95 | 82 | 63 | significant activity; also recorded: equipotent to racemic compound D1 | degraded BRD9 up to 72 hours after a single dose | –
3 | COc1cc(-c2cn(C)c(=O)c3cnc(N4CCC4)cc23)cc(OC)c1CN1CCC(CN2CCC3(CC2)CN(c2ccc4c(c2)C(=O)N([C@H]2CCC(=O)NC2=O)C4)C3)CC1 (single isomer, unassigned; enantiomer 1) [Enantiomer 1] | – | – | – | – | > 10 | – | 0.38 | – | – | 2.8 | 0.066 | – | largely inactive or with much reduced degradation potency | – | – | 12 | 30 | inactive and did not degrade BRD9 protein | – | no discernable activity
